Reference: PubChem BioAssay AID1996
In brackets after ≈: the same amount, converted by molar mass.

Settings: buffer; pH 7.4; 200.0 µM

| SMILES | solubility kinetic |
| --- | --- |
| O=C(Nc1ccc(F)cc1)Nc1csc2ccccc12 | 0.5 µg/mL (≈ 1.75 µM) |
| CCCCCCCC(=O)NC1=NC(=O)C(C)(C)S1 | 5 µg/mL (≈ 18.5 µM) |
| Cn1c(=O)n(C)c2cc(S(=O)(=O)Nc3ccc(F)cc3)ccc21 | 33.5 µg/mL (≈ 99.9 µM) |
| CCc1ccc(OCC(=O)N2CCc3ccccc32)cc1 | 0.9 µg/mL (≈ 3.2 µM) |
| O=C(NC(=S)Nc1ccccc1[N+](=O)[O-])c1ccccc1 | 4.1 µg/mL (≈ 13.6 µM) |
| N#C/C(=C\c1cccs1)C(=O)c1ccccc1 | 26.3 µg/mL (≈ 110 µM) |
| N/C(=N\OC(=O)c1cccs1)c1cccc(Br)c1 | 8.5 µg/mL (≈ 26.1 µM) |
| Cc1ccc(S(=O)(=O)Nc2ccc(Cl)cn2)cc1C | 3.4 µg/mL (≈ 11.5 µM) |
| Cc1ccc(C)c(OC(=O)c2cccnc2Cl)c1C | 14.8 µg/mL (≈ 53.7 µM) |
| CC(=O)N/C(=C\c1ccccc1)C(=O)OC/C=C/c1ccccc1 | 47.3 µg/mL (≈ 147 µM) |
| COc1ccc(S(=O)(=O)N2CCOCC2)cc1NC(=O)C1CC1 | > 51.1 µg/mL |
| O=C(Nc1ccccc1C(=O)O)C1=NN=CC1 | > 34.7 µg/mL |
| O=S1(=O)CCN(Cc2cccc(C(F)(F)F)c2)CC1 | 41.9 µg/mL (≈ 143 µM) |
| Cc1ccc(C)c(NC(=O)C2CCN(C(=O)c3cccs3)CC2)c1 | > 51.4 µg/mL |
| COc1cccc(C(=O)Nc2c[nH]c(=O)[nH]c2=O)c1 | 36.1 µg/mL (≈ 138 µM) |
| O=C1/C(=C/c2cccc([N+](=O)[O-])c2)CSc2ccc(Cl)cc21 | < 0.7 µg/mL |
| CCc1cc2c(=O)c(-c3nc(C)cs3)coc2cc1O | 1.2 µg/mL (≈ 4.18 µM) |
| O=C(NCCCN1CCCC1=O)c1ccccc1OCc1ccc(Cl)cc1Cl | 54.7 µg/mL (≈ 130 µM) |
| CN(CCC(=O)Nc1ccc(Cl)cc1)Cc1ccccc1.Cl | > 50.9 µg/mL |
| O=C(O)c1cccc(S(=O)(=O)Nc2ccc(N3CCCCC3)cc2)c1 | > 54.1 µg/mL |
| CC(=O)C1=C(c2ccccc2)NC(=O)NC1c1ccccc1 (stereo unspecified) | > 43.9 µg/mL |
| O/N=C1\CCCc2ccc3ccccc3c21 | 4.5 µg/mL (≈ 21.3 µM) |
| COc1cc(CNCCO)ccc1OCCc1ccccc1 | > 45.2 µg/mL |
| CCOC(=O)C1CCCN(CC(=O)Nc2cc(C)cc(C)c2)C1 (stereo unspecified) | 29.3 µg/mL (≈ 92 µM) |
| Cc1cccc(CSc2nc3c(c(-c4cccs4)c2C#N)CN(C)CC3)c1 | 5.8 µg/mL (≈ 14.8 µM) |

| SMILES | solubility kinetic |
| --- | --- |
| O=C(CCc1ccccc1)NC(=S)NCc1ccco1 | 2.7 µg/mL (≈ 9.36 µM) |
| CCOC(=O)c1cc(Sc2ccccc2N)cc(C(=O)OCC)n1 | < 0.4 µg/mL |
| Cc1cccc(C)c1NC(=S)N(Cc1cccs1)C1CCCC1 | 0.6 µg/mL (≈ 1.74 µM) |
| C[N+]12CCCCC1[C@@H](CO)CCC2.[Br-] (stereo partly specified) | 39.1 µg/mL |
| Cc1cc2c(cn1)C(CCC#N)(CCC#N)c1ccccc1-2 | > 43.1 µg/mL |
| Cc1cc(-c2cccc(Br)c2)c(C#N)c(N)n1 | 3.1 µg/mL (≈ 10.8 µM) |
| O=C(CN1CC=C(c2ccccc2)CC1)NC(=O)NC1CCCCC1 | 22.1 µg/mL (≈ 64.7 µM) |
| CC(C(=O)C12CC3CC(CC(C3)C1)C2)N1CCOCC1.Cl (stereo unspecified) | > 47.1 µg/mL |
| Cc1ccc(CN2CCN(C3CCOCC3)CC2CCO)cc1 (stereo unspecified) | > 47.8 µg/mL |
| CCc1cccc(CC)c1NC(=O)CSc1nnc(C2CC2)n1C | > 51.7 µg/mL |
| CCc1ccccc1NC(=S)N1CCCCCC1 | > 39.4 µg/mL |
| COc1cc(C#N)c(N=C(SCC#N)N2CCOCC2)cc1OC | > 52 µg/mL |
| CCOc1ccc(S(=O)(=O)N2CCN(c3ncccn3)CC2)cc1 | 2.7 µg/mL (≈ 7.75 µM) |
| Cc1ccc(C(=O)Nc2ccccc2N2CCCC2)s1 | > 43 µg/mL |
| Clc1ccc(COC(Cn2ccnc2)c2ccc(Cl)cc2Cl)c(Cl)c1.O=[N+]([O-])O (stereo unspecified) | 26.3 µg/mL |
| NCCNc1ccc([N+](=O)[O-])c2cccnc12 | 28.7 µg/mL (≈ 124 µM) |
| CC1(c2ccc3ccccc3c2)NC(=O)N(CC(=O)O)C1=O (stereo unspecified) | > 44.7 µg/mL |
| CN1C(=O)NC(=O)/C(=C/c2ccc([N+](=O)[O-])o2)C1=O | > 39.8 µg/mL |
| CCCCc1nc(NCCO)c(C#N)c2c1CCCC2 | 3.6 µg/mL (≈ 13.2 µM) |
| COc1ccc(S(=O)(=O)NCc2cccnc2)cc1 | > 41.7 µg/mL |
| O=C(Nc1ccccc1)Oc1cccc(Br)c1 | 35.9 µg/mL (≈ 123 µM) |
| Cc1cccc(NC(=O)CN2CCCCCC2)c1 | 25.8 µg/mL (≈ 105 µM) |
| Cc1ccc(S(=O)(=O)N2CCN(C(=O)C3CCCO3)CC2)cc1 (stereo unspecified) | 49.8 µg/mL (≈ 147 µM) |
| COc1ccc(OC)c(S(=O)(=O)NC2CCCCNC2=O)c1 (stereo unspecified) | > 49.3 µg/mL |
| CN1CCN(Cc2cccc3ncccc23)CC1CCO (stereo unspecified) | > 42.8 µg/mL |

| SMILES | solubility kinetic |
| --- | --- |
| Cc1cccc(NS(=O)(=O)c2ccc3c(c2)CCC(=O)N3)c1 | > 47.5 µg/mL |
| CN(C(=O)Nc1cnc2ccccc2c1)c1ccccc1 | > 41.6 µg/mL |
| COc1ccc(NC2=NC(C)(C)CS2)cc1 | 31.4 µg/mL (≈ 133 µM) |
| CC(C)c1ccc(Nc2nc(Cl)nc(Cl)n2)cc1 | 28.5 µg/mL (≈ 101 µM) |
| COc1cc(S(=O)(=O)NCCCn2ccnc2)ccc1Cl | > 49.5 µg/mL |
| Cc1ccccc1N1CC(C(=O)N2CC(C)OC(C)C2)CC1=O (stereo unspecified) | 47.1 µg/mL (≈ 149 µM) |
| Cl.O=C(OCCN1CCCCC1)C1(c2ccccc2)CCCC1 | > 50.7 µg/mL |
| CC(C)NC(=O)c1ccc(COc2cc(Cl)ccc2Cl)o1 | 2.8 µg/mL (≈ 8.53 µM) |
| O=C(NCCc1csc(-c2cccnc2)n1)c1c(F)cccc1F | 48.9 µg/mL (≈ 142 µM) |
| COc1ccc(NC(=O)c2ccc[n+]([O-])c2)cc1 | > 36.6 µg/mL |
| CC(C)c1ccc(C(N)=S)cc1 | 25.3 µg/mL (≈ 141 µM) |
| O=C(c1cc(-c2ccc(Cl)cc2Cl)on1)N1CCCCCC1 | 4.1 µg/mL (≈ 12.1 µM) |
| CC(=O)Nc1ccc(C(=O)OCc2ccccc2Br)cc1 | < 0.7 µg/mL |
| CCC1C(=NO)C(CC)C(c2ccccc2)NC1c1ccccc1 (stereo unspecified) | 0.9 µg/mL (≈ 2.79 µM) |
| CSc1ncccc1C(=O)Nc1cccc(C)n1 | > 38.9 µg/mL |
| CC1CCCN(c2c([N+](=O)[O-])cc(C(=O)O)cc2[N+](=O)[O-])C1 (stereo unspecified) | 46.2 µg/mL (≈ 149 µM) |
| COCC(C)NC(=O)COCc1cc(-c2ccc3c(c2)OCO3)on1 (stereo unspecified) | 39 µg/mL (≈ 112 µM) |
| CN(C(=O)COC(=O)c1cc(=O)[nH]c2ccccc12)c1ccccc1 | 11.6 µg/mL (≈ 34.5 µM) |
| CC(NC(=S)N1CCN(c2ccccc2)CC1)c1ccccc1 (stereo unspecified) | 0.4 µg/mL (≈ 1.23 µM) |
| CCN(C(=O)CSc1nc(C)nc2sc3c(c12)CCC3)C1CCS(=O)(=O)C1 (stereo unspecified) | 5.4 µg/mL (≈ 12.7 µM) |
| O=C(N/C(=C/c1ccco1)C(=O)N1CCc2ccccc21)c1ccco1 | 4.4 µg/mL (≈ 12.6 µM) |
| CC(C)c1ccc(NC(=O)COC(=O)CC2CCCC2)cc1 | 7.8 µg/mL (≈ 25.7 µM) |
| CCN(CC)S(=O)(=O)c1ccc2c(c1)NC(=O)C1CCCN21 (stereo unspecified) | 46.6 µg/mL (≈ 144 µM) |
| CN1CCC(N(C)C(=O)c2cc(-c3ccc(F)cc3)nc3ccccc23)CC1.Cl | > 62.1 µg/mL |
| CS(=O)(=O)NCCCNc1ccc(C(F)(F)F)cc1[N+](=O)[O-] | > 51.2 µg/mL |

| SMILES | solubility kinetic |
| --- | --- |
| C=CCNS(=O)(=O)c1cc2c3c(c1)CCN3C(=O)CC2 | > 43.9 µg/mL |
| C[C@H](NC(N)=O)C(=O)Nc1ccc2c(c1)OCO2 | 32.9 µg/mL (≈ 131 µM) |
| S=C(NCc1ccccc1)NC1CCSc2ccccc21 (stereo unspecified) | 1.2 µg/mL (≈ 3.82 µM) |
| Cc1ccc(-c2csc(N=C(N)N)n2)cc1 | 15.7 µg/mL (≈ 67.6 µM) |
| CCN1C(=O)Cc2cc(S(=O)(=O)NCCc3ccccc3)ccc21 | 32.9 µg/mL (≈ 95.5 µM) |
| CCOC(=O)c1cnc(SC)nc1NCCOC | > 40.7 µg/mL |
| COc1ccc(N2CCN(CC(=O)Nc3nc(C)cs3)CC2)cc1 | 49.6 µg/mL (≈ 143 µM) |
| N#CC(C#N)=Cc1cccnc1 | 19.5 µg/mL (≈ 126 µM) |
| Cc1ccc2[nH]c(C(=O)N3CCC(C(N)=O)CC3)cc2c1 | > 42.8 µg/mL |
| Cc1ccc(-c2noc(CNC(=O)c3ccoc3C)n2)cc1 | 32.6 µg/mL (≈ 110 µM) |
| CNC(=O)c1cccc2cccc(Sc3ccccc3C(=O)O)c12 | 44.2 µg/mL (≈ 131 µM) |
| Cc1cccc(C)c1NC(=O)C1C2C=CC(C2)C1C(=O)O (stereo unspecified) | 39.7 µg/mL (≈ 139 µM) |
| S=C(NCc1ccccc1)NC1CCCCC1 | > 37.3 µg/mL |
| CCCCN(CC)C(=O)c1cc2c(=O)[nH]c3ccc(C)cc3c2s1 | 0.5 µg/mL (≈ 1.46 µM) |
| COC(=O)c1ccc(NC(=O)C2C3C=CC(C3)C2C(=O)O)cc1 (stereo unspecified) | > 47.3 µg/mL |
| Nc1nc2c([N+](=O)[O-])cccc2s1 | 23 µg/mL (≈ 118 µM) |
| Cc1ccc2oc(C(=O)N(C)Cc3cnccn3)c(C)c2c1 | > 44.3 µg/mL |
| Cc1ccccc1NC(=O)Cn1c(=O)sc2ccccc21 | 1.9 µg/mL (≈ 6.37 µM) |
| O=C(O)C1CCCCC1C(=O)NC1C2CC3CC(C2)CC1C3 (stereo unspecified) | 42.4 µg/mL (≈ 139 µM) |
| CC1CN(C(=O)CNC(=O)COc2ccccc2)CC(C)O1 (stereo unspecified) | > 46 µg/mL |
| O=C(Nc1ccc2c(c1)OCCO2)c1cccnc1Oc1ccccc1 | 4 µg/mL (≈ 11.5 µM) |
| Cc1ccc(Cl)cc1NC(=S)N1CCCCCC1 | 37.8 µg/mL (≈ 134 µM) |
| Cc1ccc(C(=O)NCCN2CCOCC2)cc1[N+](=O)[O-] | > 44 µg/mL |
| CC1CC(O)(CC(O)(c2ccccc2)c2ccccc2)C(C)CN1C (stereo unspecified) | > 50.9 µg/mL |
| O=C(O)Cc1ccc(-n2cccc2)cc1 | > 30.2 µg/mL |

| SMILES | solubility kinetic |
| --- | --- |
| CSc1cccc(NC(=S)N(C(C)C)C(C)c2ccccn2)c1 (stereo unspecified) | 9.6 µg/mL (≈ 27.8 µM) |
| CC(=O)c1cccc(NC(=O)CSc2nc(C3CC3)nc3ccccc23)c1 | 0.9 µg/mL (≈ 2.38 µM) |
| Cc1cccc(C(=O)OCC(=O)NCCCc2ccccc2)c1O | 12.3 µg/mL (≈ 37.6 µM) |
| CCN(CCO)C(=O)c1ccc2oc(Cc3ccc(Cl)cc3)nc2c1 | 41.5 µg/mL (≈ 116 µM) |
| Cc1ccc(-n2nc(C(=O)O)cc2-c2ccccc2Cl)cc1 | > 46.9 µg/mL |
| NC(=O)C1CCN(S(=O)(=O)c2ccc3c(c2)OCCO3)CC1 | > 49 µg/mL |
| COc1ccc(CCC(=O)NCc2cn3ccccc3n2)cc1 | > 46.4 µg/mL |
| Cc1cccc(NS(=O)(=O)c2csc(C(N)=O)c2)c1 | > 44.5 µg/mL |
| O=C(NCC1CC1)c1ccccc1Cl | > 31.5 µg/mL |
| O=C1Nc2ccc([N+](=O)[O-])cc2OC1CCN1CCCC1 (stereo unspecified) | > 43.7 µg/mL |
| O=C(O)CC1(CC(=O)NCc2ccncc2)CCCCC1 | > 43.6 µg/mL |
| CC(=O)Nc1c(-c2ccc(Cl)cc2)c(=O)c2ccccc2n1C | 14.8 µg/mL (≈ 45.3 µM) |
| Cc1cc(NC(=O)CSCc2ccc([N+](=O)[O-])cc2)no1 | 24.6 µg/mL (≈ 80 µM) |
| O=C(NC(=S)N1CCN(C2CCCCC2)CC1)c1ccccc1 | > 49.7 µg/mL |
| CCCNC(=O)N1CCCC(C(N)=O)C1 (stereo unspecified) | > 32 µg/mL |
| CC(=O)c1ccc(S(=O)(=O)N2CCN(C)CC2)cc1 | > 42.4 µg/mL |
| O=C(CN1C(=O)C(=O)c2ccccc21)c1ccc(Cl)cc1 | 1.9 µg/mL (≈ 6.34 µM) |
| O=C(/C=C/c1ccccc1)Nc1ccc(NC(=O)c2cccs2)cc1 | < 0.4 µg/mL |
| Cc1ccc(C(=O)NCCNC(=O)c2ccccn2)cc1 | > 42.5 µg/mL |
| COc1ccc(Cl)cc1NC(=O)COC(=O)C1CC(=O)N(Cc2ccccc2)C1 (stereo unspecified) | 57.4 µg/mL (≈ 138 µM) |
| CCc1c(-c2ccccc2)nc2sc3c(c2c1N)CCCC3 | < 0.3 µg/mL |
